The text below walks through data of patent publication US5308843A, “Method of inhibiting mammalian topoisomerase II and malignant cell growth in mammals, with substituted (S)-3-methyl-7-oxo-2,3-dihydro-7H-pyrido[1,2,3-de][1,4 ]-benzoxazine(and-benzothiazine)-6-carboxylic acids” (Sterling Drug Inc., priority 1990, dated 1994).

Molecules are shown by their SMILES. “Also recorded” adds a separate entry of the source.

Series [1] has as its system colon adenocarcinoma No. 38. As to the kind of experiment: In vivo antitumor assay, colon adenocarcinoma No. 38 (SC). Set-up: species or system mice. From the text: (§1) In vivo Antitumor Assay Procedure
(§2) Mice: Inbred: C3H/He; and Hybrids: B6D2F1 (C57BL/6 females×DBA/2 males), CD2F1 (Balb/c females×DBA/2 males) and B6C3F1 (C57BL/6×C3H) were bred at Wayne State University from strains obtained from the Frederick Cancer Research Facility, Frederick, Md. or from commercial suppliers.
(§3) Tumors: Murine Tumors: P388 leukemia and the following transplantable solid tumors of mice were used for in vivo testing: B16 melanoma, pancreatic ductal adenocarcinoma No. 03, colon adenocarcinoma No. 38 and mammary ductal adenocarcinoma No. 16/C. All tumors are in the Developmental Therapeutics Program frozen tumor repository, maintained by the Biological Testing Branch, Frederick, Md. Each has a detailed description, code identification number, and list of references at the National Tumor Repository. Tumors were maintained in the mouse strain of origin and were transplanted in the appropriate F1 hybrid (or the strain of origin) for therapy trials. The mice were supplied food and water ad libitum.
(§4) Chemotherapy: For pancreatic ductal adenocarcinoma No. 03, colon adenocarcinoma No. 38, and mammary ductal adenocarcinoma No. 16, the following methods were used to help ensure a more uniform tumor burden per mouse (thus reducing the requirement for greater numbers of mice per group), bilateral tumor implants were used. The animals necessary to begin an experiment were pooled, implanted bilaterally s.c. on day zero with 30-60-mg tumor fragments using a 12-gauge trocar, and again pooled before randomization to the various treatment and control groups. Chemotherapy was started within three days after tumor implantation while the number of cells per mouse was relatively small (1×10^7 -1×10^8 cells).
(§5) End Points for Assessing Antitumor Activity: Quantitative end points used to assess antitumor activity included % Increased Life Span (% ILS), Tumor Cell Kill (Log10 kill), and Tumor Growth Inhibition (T/C). Long Term Survivors (45 or 60 day) were excluded from calculations of % ILS and Tumor Cell Kill.
(§6) Endpoints were calculated as follows: [formula] where Dt is the median day of death for treated and Dc is the median day of death for control groups.
(§7) T/C Value: Tumors were measured with a caliper once or twice weekly (as needed) until either tumors exceeded 1600 mg or cure was assured. Tumor weights were estimated from two-dimensional measurements: Tumor Weight (mg)=(a×b^2)/2, where a and b are the tumor length and width (mm), respectively. Measurements were carried out simultaneously in both the treatment and control groups. When the control group tumors reached approximately 750-1500 mg in size (median of group), the median tumor weight of each group was determined (including zeros). The T/C value in percent is an indication of antitumor effectiveness. […]. […]

Experiment in series [2]: as above
Set-up: species or system mice. Particulars: mouse, in vivo; Colon 38 (SC); drug SC; QD3-9; read-out: Maximum Tolerated Total Dose.
Description: as §1, §2, §3, §4, §5, §6, §7

For `Cc1cc(-c2c(F)cc3c(=O)c(C(=O)O)cn4c3c2SC[C@@H]4C)cc(C)n1` [Example 5, (S)-10-(2,6-Dimethyl-4-pyridinyl)-9-fluoro-3-methyl-7-oxo-2,3-dihydro-7H-pyrido[1,2,3-de][1,4]benzothiazine-6-carboxylic acid], the “Long Term Survivors” value in series [1] (Colon 38 (SC), drug SC, QD3-9, 504 mg/kg total, footnote 4: Cure, no tumor evident, day 119) is on record as 1/5. Besides, the “% T/C” value in series [1] (Colon 38 (SC), drug SC, QD3-9, at maximum tolerated total dose 504 mg/kg) worked out at 0%. In addition, the “antitumor activity (in words)” value in series [1] (Colon Adenocarcinoma 38) is given as “Cure; no tumor evident; day 119; also recorded: clearly active; also recorded: highly active”. Moreover, in series [2], the MTD was 504 mg/kg.
